Values quoted from earlier work as cited in patent US6987099B2, “Uncomplexed cyclodextrin compositions for odor control” (The Procter & Gamble Company, priority 1997, dated 2006).
Counter-ions that a name gives are not always drawn.

| Compound | solubility in water |
| --- | --- |
| OCCOc1ccccc1 [2-phenoxyethanol] | about 2.67% |
| OCCc1ccccc1 [2-phenylethanol] | about 2% |
| ClC=CC[N+]12CN3CN(CN(C3)C1)C2.[Cl-] [Dowicil 200, 1-(3-Chlorallyl)-3,5,7-triaza-1-azoniaadamantane chloride] | freely soluble in water |
| [Na+].[O-][n+]1ccccc1[S-] [sodium pyrithione] | about 50% |

The remaining lines, values ahead:

| solubility in water | Compound |
| --- | --- |
| about 0.46% | O=[N+]([O-])C1(Br)COCOC1 [Bronidox L, 5-bromo-5-nitro-1,3-dioxane] |
| more than 50% | CC1(C)C(=O)N(CO)C(=O)N1CO [DMDM hydantoin, 1,3-bis(hydroxymethyl)-5,5-dimethyl-2,4-imidazolidinedione] |
| about 4% | OCc1ccccc1 [benzyl alcohol] |
| about 0.8% | CC(C)(O)C(Cl)(Cl)Cl [chlorobutanol, 1,1,1-Trichloro-2-methylpropan-2-ol] |
| about 1.8% | [H]/N=C(\N/C(=N/[H])NCCCCCCNC(=N)NC(=N)Nc1ccc(Cl)cc1)Nc1ccc(Cl)cc1 [diacetate salt, 1,1′-hexamethylene bis(5-(p-chlorophenyl)biguanide), reference compound] |
| about 70% | [H]/N=C(\N/C(=N/[H])NCCCCCCNC(=N)NC(=N)Nc1ccc(Cl)cc1)Nc1ccc(Cl)cc1 [digluconate salt, 1,1′-hexamethylene bis(5-(p-chlorophenyl)biguanide), reference compound] |
